Measured values taken from ChEMBL document CHEMBL3885861, “Open TG-GATES”.

Organism: Rattus norvegicus
Assay: Open TG-GATES - Regimen: Single
Type: toxicity, organism-based, Sprague-Dawley
Design: regimen Single, gender Male, age 6 weeks
Settings: in vivo, po, 400 mg/kg, route gavage, dose level Low; for APTT / Bas / Eos / Fbg / Hb / Ht / Lym / MCH / MCHC / MCV / Mono / Neu / PT / Plat / RBC / Ret / WBC: tissue Blood; for KIDNEY_L / KIDNEY_R / KIDNEY_TOTAL: tissue Kidney; for LIVER: tissue Liver; for A/G / ALP / ALT / AST / BUN / CRE / Ca / Cl / DBIL / GLC / IP / K / LDH / Na / PL / RALB / TBIL / TC / TG / TP / gamma-GTP: tissue Plasma

CCO [ALCOHOL]
TERMINAL_BW (3 h): 202.6 g
APTT (3 h): 16.4 s
Bas (3 h): 0%
Eos (3 h): 1%
Fbg (3 h): 202.8 mg/dL
Hb (3 h): 13.7 g/dL
Ht (3 h): 40.7%
Lym (3 h): 81.2%
MCH (3 h): 21.8 pg
MCHC (3 h): 33.6%
MCV (3 h): 64.7 fL
Mono (3 h): 5.6%
Neu (3 h): 12.2%
PT (3 h): 12 s
Plat (3 h): 115.5 x10_4/uL
RBC (3 h): 628.6 x10_4/ul
Ret (3 h): 10%
WBC (3 h): 77.8 x10_2/uL
KIDNEY_L (3 h): 0.9 g
KIDNEY_R (3 h): 0.9 g
KIDNEY_TOTAL (3 h): 1.8 g
LIVER (3 h): 9.6 g
A/G (3 h): 2.5
ALP (3 h): 1037.2 IU/L
ALT (3 h): 36.2 IU/L
AST (3 h): 69 IU/L
BUN (3 h): 13.8 mg/dL
CRE (3 h): 0.5 mg/dL
Ca (3 h): 10.7 mg/dL
Cl (3 h): 104.4 meq/L
DBIL (3 h): 0.012 mg/dL
GLC (3 h): 195.8 mg/dL
IP (3 h): 9.3 mg/dL
K (3 h): 4.4 meq/L
LDH (3 h): 117.6 IU/L
Na (3 h): 139.8 meq/L
PL (3 h): 140.4 mg/dL
RALB (3 h): 3.9 g/dL
TBIL (3 h): 0.4 mg/dL
TC (3 h): 76.4 mg/dL
TG (3 h): 66 mg/dL
TP (3 h): 5.4 g/dL
gamma-GTP (3 h): 1.2 IU/L
TERMINAL_BW (6 h): 202.6 g
APTT (6 h): 17.9 s
Bas (6 h): 0%
Eos (6 h): 1%
Fbg (6 h): 220.2 mg/dL
Hb (6 h): 13.8 g/dL
Ht (6 h): 41.1%
Lym (6 h): 70.4%
MCH (6 h): 21.7 pg
MCHC (6 h): 33.6%
MCV (6 h): 64.6 fL
Mono (6 h): 6.6%
Neu (6 h): 22.4%
PT (6 h): 11.8 s
Plat (6 h): 114.6 x10_4/uL
RBC (6 h): 636.6 x10_4/ul
Ret (6 h): 10.1%
WBC (6 h): 98 x10_2/uL
KIDNEY_L (6 h): 0.9 g
KIDNEY_R (6 h): 0.9 g
KIDNEY_TOTAL (6 h): 1.8 g
LIVER (6 h): 9.6 g
A/G (6 h): 2.3
ALP (6 h): 802 IU/L
ALT (6 h): 29.8 IU/L
AST (6 h): 61.8 IU/L
BUN (6 h): 11.2 mg/dL
CRE (6 h): 0.5 mg/dL
Ca (6 h): 10.5 mg/dL
Cl (6 h): 105 meq/L
DBIL (6 h): 0.068 mg/dL
GLC (6 h): 197.2 mg/dL
IP (6 h): 9.8 mg/dL
K (6 h): 4.7 meq/L
LDH (6 h): 90.2 IU/L
Na (6 h): 139.6 meq/L
PL (6 h): 135.4 mg/dL
RALB (6 h): 3.8 g/dL
TBIL (6 h): 0.4 mg/dL
TC (6 h): 75 mg/dL
TG (6 h): 53.2 mg/dL
TP (6 h): 5.4 g/dL
gamma-GTP (6 h): 1.8 IU/L
TERMINAL_BW (9 h): 203.1 g
APTT (9 h): 18.5 s
Bas (9 h): 0%
Eos (9 h): 1.4%
Fbg (9 h): 205 mg/dL
Hb (9 h): 13.4 g/dL
Ht (9 h): 40.1%
Lym (9 h): 70.4%
MCH (9 h): 21.7 pg
MCHC (9 h): 33.5%
MCV (9 h): 64.7 fL
Mono (9 h): 7.6%
Neu (9 h): 20.4%
PT (9 h): 12 s
Plat (9 h): 110.8 x10_4/uL
RBC (9 h): 619 x10_4/ul
Ret (9 h): 10.4%
WBC (9 h): 90.1 x10_2/uL
KIDNEY_L (9 h): 0.9 g
KIDNEY_R (9 h): 0.9 g
KIDNEY_TOTAL (9 h): 1.8 g
LIVER (9 h): 8.6 g
A/G (9 h): 2.9
ALP (9 h): 826.6 IU/L
ALT (9 h): 30.2 IU/L
AST (9 h): 63 IU/L
BUN (9 h): 12.8 mg/dL
CRE (9 h): 0.5 mg/dL
Ca (9 h): 10.9 mg/dL
Cl (9 h): 105.6 meq/L
DBIL (9 h): 0.038 mg/dL
GLC (9 h): 199.4 mg/dL
IP (9 h): 9.9 mg/dL
K (9 h): 4.5 meq/L
LDH (9 h): 106.4 IU/L
Na (9 h): 137 meq/L
PL (9 h): 137.4 mg/dL
RALB (9 h): 4.1 g/dL
TBIL (9 h): 0.4 mg/dL
TC (9 h): 79.4 mg/dL
TG (9 h): 37.2 mg/dL
TP (9 h): 5.5 g/dL
gamma-GTP (9 h): 1.8 IU/L
TERMINAL_BW (24 h): 214.8 g
APTT (24 h): 16.9 s
Bas (24 h): 0%
Eos (24 h): 1.6%
Fbg (24 h): 196.4 mg/dL
Hb (24 h): 13.2 g/dL
Ht (24 h): 39.2%
Lym (24 h): 75%
MCH (24 h): 21.3 pg
MCHC (24 h): 33.7%
MCV (24 h): 63.3 fL
Mono (24 h): 7.2%
Neu (24 h): 17%
PT (24 h): 11.5 s
Plat (24 h): 122.1 x10_4/uL
RBC (24 h): 619 x10_4/ul
Ret (24 h): 10.5%
WBC (24 h): 85 x10_2/uL
KIDNEY_L (24 h): 1 g
KIDNEY_R (24 h): 1 g
KIDNEY_TOTAL (24 h): 2 g
LIVER (24 h): 9.9 g
A/G (24 h): 2.6
ALP (24 h): 906 IU/L
ALT (24 h): 41 IU/L
AST (24 h): 65.4 IU/L
BUN (24 h): 17.8 mg/dL
CRE (24 h): 0.5 mg/dL
Ca (24 h): 11 mg/dL
Cl (24 h): 104.4 meq/L
DBIL (24 h): 0.018 mg/dL
GLC (24 h): 201 mg/dL
IP (24 h): 8.1 mg/dL
K (24 h): 4.7 meq/L
LDH (24 h): 103.6 IU/L
Na (24 h): 139 meq/L
PL (24 h): 142 mg/dL
RALB (24 h): 4 g/dL
TBIL (24 h): 0.4 mg/dL
TC (24 h): 79.2 mg/dL
TG (24 h): 61.4 mg/dL
TP (24 h): 5.6 g/dL
gamma-GTP (24 h): 1.6 IU/L
